Converted amounts (≈) assume the structure as drawn.
Assays:
[1] = Half-life in rat plasma; format: ADME, organism-based
Mus musculus [2] = organism: Mus musculus; assay: Anti-microbial activity against Staphylococcus aureus measured as percent survival of mice 1 hr post challenge; format: functional; set-up: concentration or dose not given beside the values
[3] = Half-life in human plasma; format: ADME, cell-free
[4] = Solubility was measured in saline at 25 degree C; format: physicochemical
Rattus norvegicus [5] = assay: (§1) Clearance measured after intravenous bolus administration of 50 mg/kg of compound to rats; format: ADME, organism-based; set-up: dose 50 mg/kg, route intravenous; conditions: in vivo
[6] = Maximum plasma concentration measured after intravenous bolus administration of 50 mg/kg of compound to rats; format: ADME, organism-based; set-up: dose 50 mg/kg, route intravenous; conditions: rat
Mus musculus [7] = organism: Mus musculus; assay: Anti-microbial activity against Staphylococcus aureus measured as percent survival of mice after pre challenge; format: functional
[8] = Area under the curve measured after intravenous bolus administration of 50 mg/kg of compound to rats; format: ADME, organism-based; set-up: dose 50 mg/kg, route intravenous; conditions: rat, in vivo
Rattus norvegicus [9] = assay: (§2) Volume of distribution at a steady state measured after intravenous bolus administration of 50 mg/kg of compound to rats; format: ADME, organism-based; set-up: dose 50 mg/kg, route intravenous; conditions: in vivo
Rattus norvegicus [10] = assay: (§3) Circulatory half life measured after intravenous bolus administration of 50 mg/kg of compound to rats; format: ADME, organism-based; set-up: dose 50 mg/kg, route intravenous; conditions: in vivo
[11] = as §1; format: ADME, organism-based; set-up: dose 50 mg/kg, route intravenous; conditions: rat, in vivo
[12] = as §2; format: ADME, organism-based; set-up: dose 50 mg/kg, route intravenous; conditions: rat, in vivo, read-out: Vss
[13] = as §3; format: ADME, organism-based; set-up: dose 50 mg/kg, route intravenous; conditions: rat, in vivo

Row | Structure (SMILES) | half-life [1] [h] | Survival (Mus musculus [2]) [%] | half-life [3] [h] | solubility [4] [mg/mL] | CL (Rattus norvegicus [5]) [mL/min/kg] | Cmax [6] [µg/mL] | Survival (Mus musculus [7]) [%] | AUC [8] [µg·h/mL] | Vss (Rattus norvegicus [9]) [L/kg] | T1/2 (Rattus norvegicus [10]) [h] | clearance [11] [mL/min/kg] | Vd [12] [L/kg] | half-life [13] [h] | clearance ([11]; read-out: CL (converted)) [mL/min/kg]
1 | CN[C@H](CC(C)C)C(=O)N[C@H]1C(=O)N[C@@H](CC(N)=O)C(=O)N[C@H]2C(=O)N[C@H]3C(=O)N[C@H](C(=O)N[C@H](C(=O)O)c4cc(O)cc(O)c4-c4cc3ccc4O)[C@H](O)c3ccc(c(Cl)c3)Oc3cc2cc(c3OC2OC(CO)C(O)C(O)C2OC2CC(C)(NC(=O)OCc3cc(C)c(OC(=O)COCCO)c(C)c3)C(O)C(C)O2)Oc2ccc(cc2Cl)[C@H]1O (some centres undefined) | 2 | 100 | 6.6 | 131 (≈ 75.7 mM) |  |  |  |  |  |  |  |  |  | 
2 | O=C(O)COCCO | > 24 |  |  | 128 (≈ 1070 mM) |  |  |  |  |  |  |  |  |  | 
3 | CN[C@H](CC(C)C)C(=O)N[C@H]1C(=O)N[C@@H](CC(N)=O)C(=O)N[C@H]2C(=O)N[C@H]3C(=O)N[C@H](C(=O)N[C@H](C(=O)O)c4cc(O)cc(O)c4-c4cc3ccc4O)[C@H](O)c3ccc(c(Cl)c3)Oc3cc2cc(c3OC2OC(CO)C(O)C(O)C2OC2CC(C)(NC(=O)OCc3cc(C)c(OC(=O)C(C)NC(=O)COCCO)c(C)c3)C(O)C(C)O2)Oc2ccc(cc2Cl)[C@H]1O (some centres undefined) | 16 | 100 | > 24 | 122 (≈ 67.8 mM) | 2.972 | 47.9 | 80 | 282 | 2.6408 | 4.09 |  |  |  | 
4 | CN[C@H](CC(C)C)C(=O)N[C@H]1C(=O)N[C@@H](CC(N)=O)C(=O)N[C@H]2C(=O)N[C@H]3C(=O)N[C@H](C(=O)N[C@H](C(=O)O)c4cc(O)cc(O)c4-c4cc3ccc4O)[C@H](O)c3ccc(c(Cl)c3)Oc3cc2cc(c3OC2OC(CO)C(O)C(O)C2OC2CC(C)(NC(=O)OCc3cc(C)c(OC(=O)NCCOCCOCCNC(=O)CNC(=O)CC(NC(=O)COCCO)C(=O)NCC(=O)NCCOCCOCCNC(=O)Oc4c(C)cc(COC(=O)NC5(C)CC(OC6C(Oc7c8cc9cc7Oc7ccc(cc7Cl)[C@@H](O)[C@@H](NC(=O)[C@@H](CC(C)C)NC)C(=O)N[C@@H](CC(N)=O)C(=O)N[C@H]9C(=O)N[C@H]7C(=O)N[C@H](C(=O)N[C@H](C(=O)O)c9cc(O)cc(O)c9-c9cc7ccc9O)[C@H](O)c7ccc(c(Cl)c7)O8)OC(CO)C(O)C6O)OC(C)C5O)cc4C)c(C)c3)C(O)C(C)O2)Oc2ccc(cc2Cl)[C@H]1O (some centres undefined) | 36 | 100 | > 24 | 141 (≈ 36 mM) | 0.383 | 107 |  | 2180 | 1.341 | 14.2 |  |  |  | 
5 | CN[C@H](CC(C)C)C(=O)N[C@H]1C(=O)N[C@@H](CC(N)=O)C(=O)N[C@H]2C(=O)N[C@H]3C(=O)N[C@H](C(=O)N[C@H](C(=O)O)c4cc(O)cc(O)c4-c4cc3ccc4O)[C@H](O)c3ccc(c(Cl)c3)Oc3cc2cc(c3O[C@@H]2O[C@H](CO)[C@@H](O)[C@H](O)[C@H]2O[C@H]2C[C@](C)(N)[C@H](O)[C@H](C)O2)Oc2ccc(cc2Cl)[C@H]1O [VANCOMYCIN] |  | 100 |  |  |  | 162 | 0 | 78.8 |  |  | 10.7 | 0.309 | 0.34 | 
6 | CN[C@H](CC(C)C)C(=O)N[C@H]1C(=O)N[C@@H](CC(N)=O)C(=O)N[C@H]2C(=O)N[C@H]3C(=O)N[C@H](C(=O)N[C@H](C(=O)O)c4cc(O)cc(O)c4-c4cc3ccc4O)[C@H](O)c3ccc(c(Cl)c3)Oc3cc2cc(c3OC2OC(CO)C(O)C(O)C2OC2CC(C)(NC(=O)OCc3cc(C)c(OC(=O)CNC(=O)CC(NC(=O)COCCO)C(=O)NCC(=O)Oc4c(C)cc(COC(=O)NC5(C)CC(OC6C(Oc7c8cc9cc7Oc7ccc(cc7Cl)[C@@H](O)[C@@H](NC(=O)[C@@H](CC(C)C)NC)C(=O)N[C@@H](CC(N)=O)C(=O)N[C@H]9C(=O)N[C@H]7C(=O)N[C@H](C(=O)N[C@H](C(=O)O)c9cc(O)cc(O)c9-c9cc7ccc9O)[C@H](O)c7ccc(c(Cl)c7)O8)OC(CO)C(O)C6O)OC(C)C5O)cc4C)c(C)c3)C(O)C(C)O2)Oc2ccc(cc2Cl)[C@H]1O (some centres undefined) | 20 | 100 | > 24 | 120 (≈ 33.6 mM) | 1.63 | 29.3 |  | 513 | 3.598 | 12.37 |  |  |  | 
7 | CN[C@H](CC(C)C)C(=O)N[C@H]1C(=O)N[C@@H](CC(N)=O)C(=O)N[C@H]2C(=O)N[C@H]3C(=O)N[C@H](C(=O)N[C@H](C(=O)O)c4cc(O)cc(O)c4-c4cc3ccc4O)[C@H](O)c3ccc(c(Cl)c3)Oc3cc2cc(c3OC2OC(CO)C(O)C(O)C2OC2CC(C)(NC(=O)OCc3cc(C)c(OC(=O)CNC(=O)COCCO)c(C)c3)C(O)C(C)O2)Oc2ccc(cc2Cl)[C@H]1O (some centres undefined) | 19 | 100 | 27 | 145 (≈ 81.2 mM) |  | 25.5 |  | 386 |  |  |  | 2.72 | 10.5 | 2.19
8 | CN[C@H](CC(C)C)C(=O)N[C@H]1C(=O)N[C@@H](CC(N)=O)C(=O)N[C@H]2C(=O)N[C@H]3C(=O)N[C@H](C(=O)N[C@H](C(=O)O)c4cc(O)cc(O)c4-c4cc3ccc4O)[C@H](O)c3ccc(c(Cl)c3)Oc3cc2cc(c3OC2OC(CO)C(O)C(O)C2OC2CC(C)(NC(=O)OCc3cc(C)c(OC(=O)NCCOCCO)c(C)c3)C(O)C(C)O2)Oc2ccc(cc2Cl)[C@H]1O (some centres undefined) | > 24 | 90 | > 24 | 141 (≈ 80.2 mM) |  | 54.6 |  | 717 |  |  |  | 1.65 | 9.12 | 1.17
